Test system: MCF-7 breast cancer cells
Assay: Microarray gene expression analysis (Agilent whole human genome 4 x 44K; compound vs DMSO, LIMMA log2 fold change)
Format: cell-based

Compound: Cn1ncc2c(N3CCOCC3)nc(-c3cccc(O)c3)nc21 [ETP-45658]
- EYA1 log2FC (gene EYA1 (2138), apoptosis genes): 0.012
- log2FC EYA1 (gene EYA1 (Gene 2138), cell cycle genes): 0.012
- FABP1 log2FC (gene FABP1 (2168), apoptosis genes): 0.009
- FAIM2 log2FC (gene FAIM2 (23017), apoptosis genes): -0.062
- FAM3B log2FC (gene FAM3B (54097), apoptosis genes): -0.028
- FAM32A log2FC (gene FAM32A (26017), apoptosis genes): -0.032
- log2FC FAM32A (gene FAM32A (Gene 26017), cell cycle genes): -0.032
- log2FC (gene FAM58A (Gene 92002), cell cycle genes): 0.217
- FAS log2FC (gene FAS (355), apoptosis genes): -0.032
- log2FC (gene FBXL15 (Gene 79176), cell cycle genes): 0.209
- log2FC FGFR1OP (gene FGFR1OP (Gene 11116), cell cycle genes): -0.035
- FIS1 log2FC (gene FIS1 (51024), apoptosis genes): -0.018
- FKSG2 log2FC (gene FKSG2 (59347), apoptosis genes): 0.133
- log2FC (gene FMN2 (Gene 56776), cell cycle genes): 0.105
- FOXB1 log2FC (gene FOXB1 (27023), apoptosis genes): -0.340
- log2FC (gene FSD1 (Gene 79187), cell cycle genes): -0.401
- GADD45G log2FC (gene GADD45G (10912), apoptosis genes): -0.067
- GAPDH log2FC (gene GAPDH (2597), apoptosis genes): -0.037
- log2FC (gene GAS2L1 (Gene 10634), cell cycle genes): -0.313
- log2FC GAS2L2 (gene GAS2L2 (Gene 246176), cell cycle genes): -0.00355
- GAS6 log2FC (gene GAS6 (2621), apoptosis genes): -0.052
- GATA6 log2FC (gene GATA6 (2627), apoptosis genes): -0.019
- log2FC GATA6 (gene GATA6 (Gene 2627), cell cycle genes): -0.019
- GCG log2FC (gene GCG (2641), apoptosis genes): 0.020
- GCLM log2FC (gene GCLM (2730), apoptosis genes): -0.092
- GCM2 log2FC (gene GCM2 (9247), apoptosis genes): -0.015
- log2FC (gene GEM (Gene 2669), cell cycle genes): 0.406
- GFRAL log2FC (gene GFRAL (389400), apoptosis genes): 0.017
- GHRL log2FC (gene GHRL (51738), apoptosis genes): -0.012
- GIMAP5 log2FC (gene GIMAP5 (55340), apoptosis genes): 0.026
- GJB6 log2FC (gene GJB6 (10804), apoptosis genes): -0.056
- log2FC (gene GOLGA2 (Gene 2801), cell cycle genes): 0.210
- log2FC (gene GORASP1 (Gene 64689), cell cycle genes): 0.146
- log2FC (gene GORASP2 (Gene 26003), cell cycle genes): -0.256
- GPI log2FC (gene GPI (2821), apoptosis genes): -0.083
- GPR65 log2FC (gene GPR65 (8477), apoptosis genes): 0.021
- GRK1 log2FC (gene GRK1 (6011), apoptosis genes): -0.013
- log2FC (gene GTPBP8 (Gene 29083), cell cycle genes): 0.316
- log2FC (gene GTSE1 (Gene 51512), cell cycle genes): -0.374
- log2FC H1FOO (gene H1FOO (Gene 132243), cell cycle genes): 0.014
- HCLS1 log2FC (gene HCLS1 (3059), apoptosis genes): 0.022
- log2FC (gene HELLS (Gene 3070), cell cycle genes): 0.388
- HIPK3 log2FC (gene HIPK3 (10114), apoptosis genes): 0.006
- log2FC HORMAD2 (gene HORMAD2 (Gene 150280), cell cycle genes): 0.014
- log2FC HPGD (gene HPGD (Gene 3248), cell cycle genes): 0.013
- HPN log2FC (gene HPN (3249), apoptosis genes): -0.022
- HTRA2 log2FC (gene HTRA2 (27429), apoptosis genes): 0.031
- log2FC HTRA2 (gene HTRA2 (Gene 27429), cell cycle genes): 0.031
- IFI6 log2FC (gene IFI6 (2537), apoptosis genes): 0.041
- IFNA2 log2FC (gene IFNA2 (3440), apoptosis genes): -0.017
- IFNB1 log2FC (gene IFNB1 (3456), apoptosis genes): 0.00571
- IL1A log2FC (gene IL1A (3552), apoptosis genes): -0.044
- IL2RA log2FC (gene IL2RA (3559), apoptosis genes): -0.031
- IL2RB log2FC (gene IL2RB (3560), apoptosis genes): 0.014
- IL12A log2FC (gene IL12A (3592), apoptosis genes): 0.00544
- log2FC IL12A (gene IL12A (Gene 3592), cell cycle genes): 0.00544
- IL12B log2FC (gene IL12B (3593), apoptosis genes): -0.025
- IL17A log2FC (gene IL17A (3605), apoptosis genes): -0.016
- IL19 log2FC (gene IL19 (29949), apoptosis genes): -0.00458
- ILK log2FC (gene ILK (3611), apoptosis genes): -0.066
- log2FC ILKAP (gene ILKAP (Gene 80895), cell cycle genes): 0.002
- INSL6 log2FC (gene INSL6 (11172), apoptosis genes): 0.055
- ISL1 log2FC (gene ISL1 (3670), apoptosis genes): -0.036
- ITGA6 log2FC (gene ITGA6 (3655), apoptosis genes): -0.050
- ITGB2 log2FC (gene ITGB2 (3689), apoptosis genes): -0.075
- ITM2C log2FC (gene ITM2C (81618), apoptosis genes): -0.082
- log2FC KATNB1 (gene KATNB1 (Gene 10300), cell cycle genes): 0.014
- log2FC KCNA5 (gene KCNA5 (Gene 3741), cell cycle genes): -0.012
- KDR log2FC (gene KDR (3791), apoptosis genes): -0.026
- log2FC (gene KIAA0101 (Gene 9768), cell cycle genes): 0.294
- KIAA1324 log2FC (gene KIAA1324 (57535), apoptosis genes): -0.008
- log2FC KIF2B (gene KIF2B (Gene 84643), cell cycle genes): -0.018
- log2FC (gene KIF13A (Gene 63971), cell cycle genes): 0.190
- log2FC (gene KIF23 (Gene 9493), cell cycle genes): 0.530
- log2FC KIF25 (gene KIF25 (Gene 3834), cell cycle genes): -0.013
- KLF4 log2FC (gene KLF4 (9314), apoptosis genes): -0.009
- KRT20 log2FC (gene KRT20 (54474), apoptosis genes): -0.037
- LALBA log2FC (gene LALBA (3906), apoptosis genes): 0.031
- log2FC LATS1 (gene LATS1 (Gene 9113), cell cycle genes): 0.043
- log2FC (gene LATS2 (Gene 26524), cell cycle genes): 0.213
- LCMT1 log2FC (gene LCMT1 (51451), apoptosis genes): -0.115
- LCN2 log2FC (gene LCN2 (3934), apoptosis genes): 0.046
- log2FC (gene LEMD3 (Gene 23592), cell cycle genes): 0.294
- LGALS1 log2FC (gene LGALS1 (3956), apoptosis genes): 0.017
- LGALS12 log2FC (gene LGALS12 (85329), apoptosis genes): 0.013
- LGALS14 log2FC (gene LGALS14 (56891), apoptosis genes): -0.009
- log2FC (gene LMNA (Gene 4000), cell cycle genes): -0.311
- LRP1 log2FC (gene LRP1 (4035), apoptosis genes): 0.0019
- log2FC (gene LRP6 (Gene 4040), cell cycle genes): -0.141
- log2FC (gene LSM11 (Gene 134353), cell cycle genes): 0.145
- LTA log2FC (gene LTA (4049), apoptosis genes): -0.039
- LTF log2FC (gene LTF (4057), apoptosis genes): 0.011
- MAD2L1 log2FC (gene MAD2L1 (4085), apoptosis genes): 0.081
- MAEL log2FC (gene MAEL (84944), apoptosis genes): -0.018
- log2FC MAEL (gene MAEL (Gene 84944), cell cycle genes): -0.018
- MAGED1 log2FC (gene MAGED1 (9500), apoptosis genes): -0.026
- MAGEH1 log2FC (gene MAGEH1 (28986), apoptosis genes): -0.040
- MAP2K5 log2FC (gene MAP2K5 (5607), apoptosis genes): -0.077
- MAP2K7 log2FC (gene MAP2K7 (5609), apoptosis genes): 0.020
- log2FC (gene MAP3K8 (Gene 1326), cell cycle genes): 0.390
- log2FC (gene MAP4 (Gene 4134), cell cycle genes): -0.267
- MAPK1 log2FC (gene MAPK1 (5594), apoptosis genes): -0.045
- log2FC (gene MAPK4 (Gene 5596), cell cycle genes): -0.157
- log2FC (gene MAPK6 (Gene 5597), cell cycle genes): 0.270
- MAPK8 log2FC (gene MAPK8 (5599), apoptosis genes): 0.027
- MAPK9 log2FC (gene MAPK9 (5601), apoptosis genes): 0.064
- log2FC (gene MAPK12 (Gene 6300), cell cycle genes): -0.374
- MAPT log2FC (gene MAPT (4137), apoptosis genes): -0.024
- log2FC MCM4 (gene MCM4 (Gene 4173), cell cycle genes): 0.015
- MDM4 log2FC (gene MDM4 (4194), apoptosis genes): 0.064
- log2FC (gene MED25 (Gene 81857), cell cycle genes): -0.377
- MKL1 log2FC (gene MKL1 (57591), apoptosis genes): 0.068
- MKNK1 log2FC (gene MKNK1 (8569), apoptosis genes): -0.00243
- MNDA log2FC (gene MNDA (4332), apoptosis genes): -0.056
- MSX2 log2FC (gene MSX2 (4488), apoptosis genes): 0.054
- MT3 log2FC (gene MT3 (4504), apoptosis genes): -0.266
- log2FC (gene MYOG (Gene 4656), cell cycle genes): -0.210
- NACA log2FC (gene NACA (4666), apoptosis genes): 0.023
- log2FC NANOG (gene NANOG (Gene 79923), cell cycle genes): -0.00653
- log2FC (gene NASP (Gene 4678), cell cycle genes): 0.392
- NCF1 log2FC (gene NCF1 (653361), apoptosis genes): -0.052
- NCF2 log2FC (gene NCF2 (4688), apoptosis genes): -0.027
- log2FC (gene NCOR1 (Gene 9611), cell cycle genes): 0.294
- NDUFS3 log2FC (gene NDUFS3 (4722), apoptosis genes): -0.101
- NEURL log2FC (gene NEURL (9148), apoptosis genes): -0.034
- NEUROD1 log2FC (gene NEUROD1 (4760), apoptosis genes): -0.043
- log2FC NEUROG1 (gene NEUROG1 (Gene 4762), cell cycle genes): 0.161
- NLE1 log2FC (gene NLE1 (54475), apoptosis genes): 0.057
- NME6 log2FC (gene NME6 (10201), apoptosis genes): -0.008
- log2FC NME6 (gene NME6 (Gene 10201), cell cycle genes): -0.008
- NOS1AP log2FC (gene NOS1AP (9722), apoptosis genes): 0.022
- NOTCH1 log2FC (gene NOTCH1 (4851), apoptosis genes): -0.090
- NOX5 log2FC (gene NOX5 (79400), apoptosis genes): -0.012
- log2FC NOX5 (gene NOX5 (Gene 79400), cell cycle genes): -0.012
- NTRK1 log2FC (gene NTRK1 (4914), apoptosis genes): -0.014
- log2FC (gene NUMA1 (Gene 4926), cell cycle genes): -0.415
- log2FC (gene NUP153 (Gene 9972), cell cycle genes): -0.238
- log2FC NUP155 (gene NUP155 (Gene 9631), cell cycle genes): -0.034
- log2FC (gene NUP188 (Gene 23511), cell cycle genes): -0.304
- NUPR1 log2FC (gene NUPR1 (26471), apoptosis genes): 0.023
- OSR1 log2FC (gene OSR1 (130497), apoptosis genes): -0.039
- P4HB log2FC (gene P4HB (5034), apoptosis genes): 0.022
- log2FC (gene PA2G4 (Gene 5036), cell cycle genes): -0.298
- PAFAH2 log2FC (gene PAFAH2 (5051), apoptosis genes): 0.046
- PAK6 log2FC (gene PAK6 (56924), apoptosis genes): -0.022
- log2FC PAK6 (gene PAK6 (Gene 56924), cell cycle genes): -0.022
- log2FC (gene PAPD5 (Gene 64282), cell cycle genes): 0.341
- PARK7 log2FC (gene PARK7 (11315), apoptosis genes): 0.028
- PAX2 log2FC (gene PAX2 (5076), apoptosis genes): 0.003
- log2FC PCNA (gene PCNA (Gene 5111), cell cycle genes): -0.00322
- PCSK9 log2FC (gene PCSK9 (255738), apoptosis genes): -0.039
- log2FC PDCD2L (gene PDCD2L (Gene 84306), cell cycle genes): 0.012
- PDCD5 log2FC (gene PDCD5 (9141), apoptosis genes): 0.123
- PDCL3 log2FC (gene PDCL3 (79031), apoptosis genes): -0.100
- PDE1B log2FC (gene PDE1B (5153), apoptosis genes): 0.004
- PDE3A log2FC (gene PDE3A (5139), apoptosis genes): -0.006
- log2FC PDE3A (gene PDE3A (Gene 5139), cell cycle genes): -0.006

Source: publication PMC4303209, “A novel phosphatidylinositol 3-kinase (PI3K) inhibitor directs a potent FOXO-dependent, p53-independent cell cycle arrest phenotype characterized by the differential induction of a subset of FOXO-regulated genes” (Breast Cancer Research : BCR, 2014)
